Assay results reported in patent US11358931B2, “Selective androgen receptor modulators (SARMs) and uses thereof” (priority 2007, dated 2022).
Where two headings read alike, the source gives them in different places.

Experiments:
Format in all cases: cell-based
[1] = system: TNFα-IL-1β-induced IL-6 promoter activity; assay: IL-6 promoter repression assay (Saos-2 human osteoblast cells transfected with human AR); conditions: for IC50: Homo sapiens, read-out: average IC50, suppression of TNFα-IL-1β-induced IL-6 promoter activity
Description: An exemplary cotransfection assay for measuring AR-mediated effects on bone measures the modulation of IL-6 promoter activity. IL-6 is an important bone resorption factor (Jilka et al, Science 257: 88-91 (1992); Bellido et al., J Clin Invest 95: 2886-2895 (1995)). Overexpression of IL-6 can cause severe bone loss in vivo. […] It has been reported that androgens regulate IL-6 mRNA by suppressing NFKB binding to its response element (Keller et al., J Biol Chem 271: 26267-26275 (1996)). Thus, the AR-mediated modulation of IL-6 promoter activity provides an excellent marker for studying androgen action in bone. The assay is a cotransfection assay that measures the ability of compound to repress gene expression via the human androgen receptor from the IL-6 promoter using a luciferase reporter assay in human osteoblast cells.
A human osteoblast cell line (Saos-2, available from American Type Cell Culture (ATCC, Rockville, Md.)) can be used in the luciferase reporter assay. An IL-6-LUC reporter plasmid can be constructed by inserting the IL-6 promoter sequence into a luciferase reporter vector (e.g., by cloning the human IL-6 promoter region from −232 to +17 bp from human liver genomic DNA (Clontech, Palo Alti, Calif.) and inserting the sequence into a pGL2-enhancer reporter plasmid (Promega, Madison, Wis.)). The Saos-2 cell line can be transiently transfected with a human AR expression plasmid and a luciferase reporter plasmid containing the IL-6 promoter upstream of the luciferase cDNA. The compounds to be tested are added to the cells after transfection and after 24 hours of incubation, the cells are lysed with a detergent-containing buffer and assayed for luciferase activity. The EC50 is determined from the concentration response curve for the compound, and the inhibitory effect on TNFα/IL-1β induction (% inhibition) can be calculated according to the equation: […]
IL-6 is an important bone resorption factor. Over-expression of IL-6 can cause severe bone loss in vivo. Reducing IL-6 production by bone cells would be therapeutically beneficial by reducing bone resorption. Compound 102 and the androgen receptor modulators LG0893410 and LG0893411 were tested to determine their ability to suppress TNFα-IL-1β-induced IL-6 promoter activity in Saos-2 human osteoblast cells using a cotransfection assay. A human osteoblast cell line (Saos-2) was transiently transfected with a human AR expression plasmid and a luciferase reporter plasmid containing the IL-6 promoter upstream of the luciferase cDNA. Saos-2 cells were seeded at 6000 cells/well in 96-well plates. The same day, a non-liposomal formulation, FuGENE 6 reagent (Roche, Indianapolis, Ind.) was used for transfection of the cells. To each well was added […] of the IL-6-LUC reporter plasmid and 0.7 μg of pCMV-hAR. Twenty-four hours after transfection, different concentrations of the solvated compound (10^−11 to 10^−6 M) in DMEM (Dulbecco's Minimal Essential Media) were added in triplicate to the cells and the cells were incubated for 24 hours. The expression of luciferase was stimulated by the cytokines Tumor Necrosis Factor α (TNFα, 10 ng/mL) and Interleukin-1 beta (IL-1β, 1 ng/mL). The medium was aspirated and the cells were lysed with a detergent-containing buffer. After addition of Luciferase Assay Buffer to each well, the cells were assayed for luciferase activity using a luminometer to determine the level of transcriptional activation.

[2] = system: human skeletal α-actin promoter activity; assay: Skeletal α-actin promoter assay (C2C12 cells transfected with human AR); conditions: for EC50: C2C12, read-out: EC50, activation of skeletal α-actin promoter; for efficacy, % of DHT: C2C12 mouse muscle cells
Description: An exemplary assay for measuring AR-mediated gene expression in mouse muscle cells is the human skeletal α-actin assay. A mouse muscle cell line (C2C12, obtained from American Type Cell Culture (ATCC, Rockville, Md.)) can be used in the luciferase reporter assay. An SK α-actin-LUC reporter plasmid is constructed by inserting the skeletal α-actin promoter sequence into a luciferase reporter vector (e.g., by cloning the human skeletal α-actin promoter region from −77 to +202 bp from human liver genomic DNA (Clontech, Palo Alti, Calif.) and inserting the sequence into a pGL3-Basic reporter plasmid (Promega, Madison, Wis.)). The C2C12 cell line can be transiently transfected with a human AR expression plasmid and a luciferase reporter plasmid containing the skeletal α-actin promoter upstream of the luciferase cDNA. The compounds to be tested are added to the cells after transfection and after 24 hours of incubation, the cells are lysed with a detergent-containing buffer and assayed for luciferase activity.
Compound 102 was tested to determine its ability to activate human skeletal α-actin using the skeletal α-actin promoter assay. A mouse muscle cell line (C2C12) was transiently transfected with a human AR expression plasmid and a luciferase reporter plasmid containing the skeletal α-actin promoter upstream of the luciferase cDNA. C2C12 cells (at a concentration of 5×10^5) were seeded in a T25 flask and cultured for 24 hours. The cells were harvested by using trypsin and seeded at 6000 cells/well in 96-well plates. The same day, a non-liposomal formulation, FuGENE 6 reagent (Roche, Indianapolis, Ind.) was used for transfection of the cells. To each well was added 45.5 ng of the skeletal α-actin-LUC reporter plasmid, 4.55 ng pRShAR and 5 ng pRS-BG as carrier DNA. Twenty-four hours after transfection, different concentrations of the solvated compound (10^−10 to 10^−6 M) were added in triplicate to the cells and the cells were incubated for 24 hours. The medium was aspirated and the cells were lysed with a detergent-containing buffer. After addition of Luciferase Assay Buffer to each well, the cells were assayed for luciferase activity using a luminometer to determine the level of transcriptional activation.

[3] = target: endogenous human androgen receptor (hAR) (Homo sapiens, UniProt P10275); assay: Activation of hAR-responsive luciferase reporter in MDA-MB-453 cells
Procedure: A functional assay was conducted to determine the ability of test substances to modulate gene expression via endogenous human androgen receptor (hAR) in a human cell line. A luciferase reporter assay was utilized to establish the ability of test compounds to activate hAR-regulated gene expression in a human cell line containing endogenously expressed hAR (MDAMB-453 cells) transfected with an androgen-responsive luciferase reporter plasmid containing the cDNA for firefly luciferase. MDA-MB-453 cells were transfected with a plasmid containing the cDNA for firefly luciferase (LUC) under the control of a conditional promoter containing hormone response elements recognized by AR (MMTV-LUC) and a P-galactosidase expression plasmid (pRS-(3-Gal) for normalization of transfection efficiency. The reporter plasmid MMTVLUC contains the mouse Mammary Tumor Virus (MMTV) Long Terminal Repeat (LTR) conditional promoter containing hormone response elements recognized by hAR. The luciferase response was calculated as: Luciferase response/β-gal rate where
Luciferase response=Relative Luciferase Units (RLU) and
β-gal rate=β-gal 0.D.415/β-Gal incubation time in minutes.
The mean of the normalized response at each concentration of compound was calculated. The effective concentration that produced 50% of the maximum response (EC50) was determined for each compound by interpolation between two concentrations spanning the midpoint of the concentration-response curve. Agonist efficacy for test compounds was calculated as a percent of normalized response relative to the maximum normalized response by the reference agonist DHT.

[4] = MDA-MB-453 cells, MMTV-LUC; read-out: EC50, activating hAR-responsive luciferase reporter

Sequence of endogenous human androgen receptor (hAR) (P10275 whole entry): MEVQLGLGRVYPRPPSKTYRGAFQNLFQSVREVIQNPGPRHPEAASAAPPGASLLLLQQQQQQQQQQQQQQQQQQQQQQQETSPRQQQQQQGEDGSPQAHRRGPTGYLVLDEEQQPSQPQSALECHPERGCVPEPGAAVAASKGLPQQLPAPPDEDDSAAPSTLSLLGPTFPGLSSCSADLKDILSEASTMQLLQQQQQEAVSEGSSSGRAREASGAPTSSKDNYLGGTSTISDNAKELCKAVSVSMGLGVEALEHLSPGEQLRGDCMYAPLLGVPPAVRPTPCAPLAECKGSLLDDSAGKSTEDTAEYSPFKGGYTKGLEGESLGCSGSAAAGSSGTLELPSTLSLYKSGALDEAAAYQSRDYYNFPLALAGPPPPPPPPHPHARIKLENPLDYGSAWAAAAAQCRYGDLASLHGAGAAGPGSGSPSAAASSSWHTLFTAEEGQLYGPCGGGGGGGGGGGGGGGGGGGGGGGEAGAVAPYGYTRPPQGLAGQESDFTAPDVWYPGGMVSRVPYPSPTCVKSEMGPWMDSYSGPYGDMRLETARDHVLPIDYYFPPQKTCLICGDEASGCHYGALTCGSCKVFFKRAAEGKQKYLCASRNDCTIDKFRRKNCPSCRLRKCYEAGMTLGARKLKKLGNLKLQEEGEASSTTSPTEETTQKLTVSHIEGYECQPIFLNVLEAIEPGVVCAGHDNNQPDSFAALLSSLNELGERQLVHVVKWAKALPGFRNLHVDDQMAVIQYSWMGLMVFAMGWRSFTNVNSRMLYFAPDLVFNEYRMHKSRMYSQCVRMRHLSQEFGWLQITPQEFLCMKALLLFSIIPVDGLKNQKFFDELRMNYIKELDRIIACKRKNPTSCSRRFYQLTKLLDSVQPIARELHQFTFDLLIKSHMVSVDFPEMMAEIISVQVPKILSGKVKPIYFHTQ

## N#Cc1ccc(N2CCC[C@@H]2[C@@H](O)C(F)(F)F)cc1C(F)(F)F [Compound 102, R,R-4-(2-(1-Hydroxyl-2,2,2-trifluoroethyl)-pyrrolidinyl)-2-trifluoromethyl-benzonitrile]
[1]; Saos-2 cells
  IC50: 0.41 nM
  efficacy, % of DHT: 97%
[1]; ratio of IC50
  more potent than LG0893410 and LG0893411 in suppressing IL-6 promoter activity: 3-4 fold
[2]
  EC50: 8.7 nM
  efficacy, % of DHT: 93%
[2]; concentration 1×10^−7 M
  increase of skeletal α-actin promoter activity compared to vehicle control: about 17.5 fold
[2]; ratio of EC50
  more potent in stimulating muscle cells than LG0893410 and LG0893411: 5-10 fold
[3]; ratio of EC50
  more potent than LG0893410 and LG0893411 in activating hAR-responsive luciferase reporter: 8.5 to 12.5 times
[3]; read-out: EC50, activating hAR-responsive luciferase reporter; MDA-MB-453 cells, MMTV-LUC
  EC50: 2.8 nM

## O=[N+]([O-])c1ccc(N2CCC[C@@H]2[C@H](O)C(F)(F)F)cc1C(F)(F)F [LG0893411, S, R-2,2,2-trifluoro-1-[1-(4-nitro-3-trifluoromethyl-phenyl)-pyrrolidin-2-yl]-ethanol]
[1]; Saos-2 cells
  IC50: 1.5 nM
[2]
  EC50: 85.6 nM
  efficacy, % of DHT: 59%
[3]; [4]
  EC50: 35 nM

## O=[N+]([O-])c1ccc(N2CCC[C@@H]2[C@@H](O)C(F)(F)F)cc1C(F)(F)F [LG0893410, R,R-2,2,2-trifluoro-1-[1-(4-nitro-3-trifluoromethyl-phenyl)-pyrrolidin-2-yl]-ethanol]
[1]; Saos-2 cells
  IC50: 1.2 nM
[2]
  EC50: 45.2 nM
  efficacy, % of DHT: 43%
[3]; [4]
  EC50: 24.2 nM
